One molecule from ChEMBL document CHEMBL2406977, “The discovery of PLK4 inhibitors: (E)-3-((1H-Indazol-6-yl)methylene)indolin-2-ones as novel antiproliferative agents” (J Med Chem, 2013) can be followed below.

pIC50: −log10 of the molar value. Bounds are passed on as bounds.

In one series the test system is HCC1954. Briefly: Antiproliferative activity against human HCC1954 cells assessed as growth inhibition after 5 days by SRB assay. It is filed as functional. The following applies: HCC1954, 120 h. Background: In SRB staining, fixed cells bind dye roughly in proportion to their protein.
Series [1] concerns the target Serine/threonine-protein kinase PLK3 (Homo sapiens, UniProt Q9H4B4). Briefly: Inhibition of PLK3 (unknown origin) by FRET-based homogeneous assay.
In the next series the target is Aurora kinase B (Homo sapiens, UniProt Q96GD4). Briefly: Inhibition of aurora B (unknown origin) by FRET-based homogeneous assay.
The subject of a further series is SK-BR-3. As to the kind of experiment: Antiproliferative activity against human SKBR3 cells assessed as growth inhibition after 5 days by SRB assay. It is filed as functional. The note with it: SK-BR-3, 120 h.
Series [2] relates to MDA-MB-468. Briefly: Antiproliferative activity against human MDA-MB-468 cells assessed as growth inhibition after 5 days by SRB assay. It is filed as functional. The following applies: MDA-MB-468, 120 h.
A further series has as its target Cytochrome P450 2C9 (Homo sapiens, UniProt P11712). Briefly: Inhibition of CYP2C9 (unknown origin) using MFC as substrate after 45 mins by fluorescence assay. It is filed as ADME.
A short description of series [3]: Permeability of the compound at pH 7.4 by PAMPA. It is filed as ADME. The following applies: read-out: permeability.
A short description of series [4]: AUC in SCID mouse at 50 mg/kg, ip. Further details: dose 50 mg/kg, route intraperitoneal. The following applies: plasma. It is filed as ADME, organism-based.
A further series has as its system MDA-MB-231. Briefly: Antiproliferative activity against human MDA-MB-231 cells assessed as growth inhibition after 5 days by SRB assay. It is filed as functional. The note with it: MDA-MB-231, 120 h.
The subject of series [5] is MDA-MB-468. Briefly: Antitumor activity against human MDA-MB-468 cells xenografted in CB-17 SCID mouse assessed as reduction in tumor size at 50 mg/kg, ip qd for 21 days. It is filed as functional. The following applies: MDA-MB-468, ip, 504 h, route intraperitoneal, read-out: TGI. On the technique in general: Xenograft models place foreign cells or tissue in a host animal.

In a further series the target is Cytochrome P450 3A4 (Homo sapiens, UniProt P08684). As to the kind of experiment: Inhibition of CYP3A4 (unknown origin) after 10 mins by fluorescence assay. It is filed as ADME.
Series [6] in a line: Cmax in SCID mouse at 50 mg/kg, ip. It is filed as ADME, organism-based. Further details: dose 50 mg/kg, route intraperitoneal. The note with it: in vivo.
The target of another series is T1, Aurora kinase A (Homo sapiens, UniProt O14965).
T1 sequence (O14965 whole entry): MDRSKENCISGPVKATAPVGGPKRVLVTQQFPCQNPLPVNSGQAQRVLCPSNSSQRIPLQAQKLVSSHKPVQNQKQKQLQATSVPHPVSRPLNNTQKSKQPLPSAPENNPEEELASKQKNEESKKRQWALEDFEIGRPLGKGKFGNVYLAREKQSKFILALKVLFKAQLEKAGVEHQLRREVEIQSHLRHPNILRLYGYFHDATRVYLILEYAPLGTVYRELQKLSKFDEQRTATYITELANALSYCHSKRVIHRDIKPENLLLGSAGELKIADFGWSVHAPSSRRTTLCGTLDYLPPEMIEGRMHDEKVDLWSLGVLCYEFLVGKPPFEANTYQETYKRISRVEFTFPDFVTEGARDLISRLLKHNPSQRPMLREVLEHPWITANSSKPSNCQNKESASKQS
As to the kind of experiment: Inhibition of aurora A (unknown origin) by FRET-based homogeneous assay.

A further series has as its target Cytochrome P450 2D6 (Homo sapiens, UniProt P10635). As to the kind of experiment: Inhibition of CYP2D6 (unknown origin) using AMMC as substrate after 30 mins by fluorescence assay. It is filed as ADME.
Series [7] in a line: Plasma protein binding in mouse at […] after 4 hrs by equilibrium dialysis method. It is filed as ADME, cell-free. The note with it: read-out: PPB.
The target in a further series is Cytochrome P450 2C19 (Homo sapiens, UniProt P33261). As to the kind of experiment: Inhibition of CYP2C19 (unknown origin) using MFC as substrate after 30 mins by fluorescence assay. It is filed as ADME.
The target in series [8] is T2, Serine/threonine-protein kinase PLK4 (Homo sapiens, UniProt O00444).
T2 sequence (O00444 whole entry): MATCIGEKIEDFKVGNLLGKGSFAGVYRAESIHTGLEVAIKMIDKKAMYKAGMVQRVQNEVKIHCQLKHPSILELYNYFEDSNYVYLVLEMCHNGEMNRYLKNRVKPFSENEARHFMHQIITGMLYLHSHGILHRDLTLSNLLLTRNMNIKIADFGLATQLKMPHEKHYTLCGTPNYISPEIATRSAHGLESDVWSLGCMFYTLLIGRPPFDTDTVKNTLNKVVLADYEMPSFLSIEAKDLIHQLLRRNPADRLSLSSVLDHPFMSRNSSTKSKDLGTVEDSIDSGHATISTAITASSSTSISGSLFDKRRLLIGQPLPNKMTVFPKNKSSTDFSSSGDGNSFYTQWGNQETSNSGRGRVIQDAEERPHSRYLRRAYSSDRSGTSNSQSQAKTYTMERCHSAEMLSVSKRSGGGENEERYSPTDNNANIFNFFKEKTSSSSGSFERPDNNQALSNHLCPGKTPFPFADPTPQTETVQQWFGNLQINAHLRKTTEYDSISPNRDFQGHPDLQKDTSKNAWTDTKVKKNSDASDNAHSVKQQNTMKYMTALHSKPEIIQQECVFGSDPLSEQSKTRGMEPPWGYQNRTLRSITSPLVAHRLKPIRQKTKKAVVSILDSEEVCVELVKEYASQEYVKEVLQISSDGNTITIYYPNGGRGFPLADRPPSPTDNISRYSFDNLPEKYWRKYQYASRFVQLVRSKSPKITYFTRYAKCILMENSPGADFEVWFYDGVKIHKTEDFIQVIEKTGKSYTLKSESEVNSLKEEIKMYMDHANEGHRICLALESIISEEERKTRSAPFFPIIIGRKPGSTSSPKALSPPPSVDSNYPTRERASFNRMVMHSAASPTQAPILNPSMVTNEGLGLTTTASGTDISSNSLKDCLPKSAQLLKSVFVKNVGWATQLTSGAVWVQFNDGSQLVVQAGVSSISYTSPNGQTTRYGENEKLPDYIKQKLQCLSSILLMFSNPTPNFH
Briefly: Inhibition of N-terminal GST-tagged human PLK4 (1 to 391 amino acids) expressed in Escherichia coli using TMB as substrate after 30 mins by indirect ELISA assay. For orientation: An ELISA detects its analyte on a solid surface through an enzyme-linked reagent.

The target in series [9] is Serine/threonine-protein kinase PLK2 (Homo sapiens, UniProt Q9NYY3). As to the kind of experiment: Inhibition of PLK2 (unknown origin) by FRET-based homogeneous assay.
Another series has as its system Mus musculus. As to the kind of experiment: Toxicity in human MDA-MB-468 cells xenografted CB-17 SCID mouse assessed as reduction in body weight at 25 mg/kg, ip qd for 21 days. It is filed as organism-based. Also noted: dose 25 mg/kg, route intraperitoneal. The note with it: in vivo, 504 h.
The next series deals with MCF7. Briefly: Antiproliferative activity against human MCF7 cells assessed as growth inhibition after 5 days by SRB assay. It is filed as functional. The note with it: MCF7, 120 h.

A word on the GI50: it is the concentration at which growth is held to half of that of the control. For orientation: pIC50 means −log10 of the IC50, conventionally taken in molar units. A high value points to a low IC50. By AUC is commonly meant concentration integrated over time. A higher AUC goes with high exposure. For orientation: Cmax means the peak of the concentration-time curve.

Chain of Aurora kinase B (Q96GD4 whole entry): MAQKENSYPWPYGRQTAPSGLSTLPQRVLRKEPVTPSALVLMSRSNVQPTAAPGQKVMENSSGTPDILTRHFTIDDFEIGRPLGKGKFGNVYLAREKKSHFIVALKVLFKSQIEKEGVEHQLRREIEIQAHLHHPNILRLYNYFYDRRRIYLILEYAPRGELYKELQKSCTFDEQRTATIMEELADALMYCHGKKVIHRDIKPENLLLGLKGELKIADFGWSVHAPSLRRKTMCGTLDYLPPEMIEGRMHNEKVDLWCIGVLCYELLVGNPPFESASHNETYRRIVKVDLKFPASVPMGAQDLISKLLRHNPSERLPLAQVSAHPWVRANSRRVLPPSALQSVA
Chain of Cytochrome P450 3A4 (P08684 whole entry): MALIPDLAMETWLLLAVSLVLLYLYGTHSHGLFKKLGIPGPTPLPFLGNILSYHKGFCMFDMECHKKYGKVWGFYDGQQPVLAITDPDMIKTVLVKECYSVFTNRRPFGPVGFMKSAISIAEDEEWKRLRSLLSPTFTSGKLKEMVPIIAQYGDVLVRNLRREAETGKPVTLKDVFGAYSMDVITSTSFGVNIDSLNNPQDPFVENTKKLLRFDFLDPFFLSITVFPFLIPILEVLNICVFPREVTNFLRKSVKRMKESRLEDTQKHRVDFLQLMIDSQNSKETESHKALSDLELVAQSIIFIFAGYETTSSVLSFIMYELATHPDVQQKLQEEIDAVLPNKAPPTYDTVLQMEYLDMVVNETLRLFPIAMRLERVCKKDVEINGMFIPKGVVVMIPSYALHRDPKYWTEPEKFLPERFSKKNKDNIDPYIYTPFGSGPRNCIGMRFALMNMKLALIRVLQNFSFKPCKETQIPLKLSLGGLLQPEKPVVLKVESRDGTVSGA
Chain of Serine/threonine-protein kinase PLK2 (Q9NYY3 whole entry): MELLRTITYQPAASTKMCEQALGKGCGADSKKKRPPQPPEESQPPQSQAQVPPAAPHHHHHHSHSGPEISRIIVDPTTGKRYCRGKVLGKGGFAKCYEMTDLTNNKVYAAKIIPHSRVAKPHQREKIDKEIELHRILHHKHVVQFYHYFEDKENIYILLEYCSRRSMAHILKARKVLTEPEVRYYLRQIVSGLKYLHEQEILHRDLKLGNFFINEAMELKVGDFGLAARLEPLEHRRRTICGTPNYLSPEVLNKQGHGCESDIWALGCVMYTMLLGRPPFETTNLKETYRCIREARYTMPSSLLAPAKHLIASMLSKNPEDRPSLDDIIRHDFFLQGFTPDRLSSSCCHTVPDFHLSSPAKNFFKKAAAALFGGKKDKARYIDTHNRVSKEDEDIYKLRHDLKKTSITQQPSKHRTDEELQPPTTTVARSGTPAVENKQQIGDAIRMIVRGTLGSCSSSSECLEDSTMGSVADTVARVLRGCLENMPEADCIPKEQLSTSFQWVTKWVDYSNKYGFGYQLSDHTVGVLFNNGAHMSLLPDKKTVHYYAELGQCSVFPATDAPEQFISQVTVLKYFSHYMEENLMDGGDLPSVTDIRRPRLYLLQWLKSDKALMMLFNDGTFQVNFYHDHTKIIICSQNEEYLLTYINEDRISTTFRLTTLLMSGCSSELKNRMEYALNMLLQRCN
Chain of Cytochrome P450 2C19 (P33261 whole entry): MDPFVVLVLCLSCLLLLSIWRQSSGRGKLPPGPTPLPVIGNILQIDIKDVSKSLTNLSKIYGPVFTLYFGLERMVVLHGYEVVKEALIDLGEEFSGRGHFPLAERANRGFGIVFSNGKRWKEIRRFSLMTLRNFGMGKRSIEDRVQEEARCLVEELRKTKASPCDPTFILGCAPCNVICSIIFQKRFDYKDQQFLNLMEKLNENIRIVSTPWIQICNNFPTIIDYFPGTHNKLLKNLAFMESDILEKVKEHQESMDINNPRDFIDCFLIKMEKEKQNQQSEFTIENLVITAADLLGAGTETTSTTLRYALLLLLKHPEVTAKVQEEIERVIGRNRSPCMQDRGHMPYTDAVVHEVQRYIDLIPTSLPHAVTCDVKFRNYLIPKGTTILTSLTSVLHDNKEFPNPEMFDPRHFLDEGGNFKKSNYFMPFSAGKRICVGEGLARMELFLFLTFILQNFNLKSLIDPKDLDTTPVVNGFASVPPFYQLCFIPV
Chain of Cytochrome P450 2C9 (P11712 whole entry): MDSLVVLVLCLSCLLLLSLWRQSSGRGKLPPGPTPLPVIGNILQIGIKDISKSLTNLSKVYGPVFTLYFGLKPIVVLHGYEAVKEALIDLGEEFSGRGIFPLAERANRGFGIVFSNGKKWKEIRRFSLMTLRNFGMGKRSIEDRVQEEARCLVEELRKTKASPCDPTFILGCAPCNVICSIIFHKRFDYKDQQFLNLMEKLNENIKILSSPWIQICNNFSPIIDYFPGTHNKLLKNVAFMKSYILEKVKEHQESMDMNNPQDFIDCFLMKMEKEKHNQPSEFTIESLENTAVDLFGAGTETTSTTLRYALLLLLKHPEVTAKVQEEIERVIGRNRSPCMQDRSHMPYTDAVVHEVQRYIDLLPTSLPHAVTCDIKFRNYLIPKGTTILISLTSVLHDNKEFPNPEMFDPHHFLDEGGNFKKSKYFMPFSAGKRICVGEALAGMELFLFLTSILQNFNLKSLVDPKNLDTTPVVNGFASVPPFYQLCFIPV
Chain of Serine/threonine-protein kinase PLK3 (Q9H4B4 whole entry): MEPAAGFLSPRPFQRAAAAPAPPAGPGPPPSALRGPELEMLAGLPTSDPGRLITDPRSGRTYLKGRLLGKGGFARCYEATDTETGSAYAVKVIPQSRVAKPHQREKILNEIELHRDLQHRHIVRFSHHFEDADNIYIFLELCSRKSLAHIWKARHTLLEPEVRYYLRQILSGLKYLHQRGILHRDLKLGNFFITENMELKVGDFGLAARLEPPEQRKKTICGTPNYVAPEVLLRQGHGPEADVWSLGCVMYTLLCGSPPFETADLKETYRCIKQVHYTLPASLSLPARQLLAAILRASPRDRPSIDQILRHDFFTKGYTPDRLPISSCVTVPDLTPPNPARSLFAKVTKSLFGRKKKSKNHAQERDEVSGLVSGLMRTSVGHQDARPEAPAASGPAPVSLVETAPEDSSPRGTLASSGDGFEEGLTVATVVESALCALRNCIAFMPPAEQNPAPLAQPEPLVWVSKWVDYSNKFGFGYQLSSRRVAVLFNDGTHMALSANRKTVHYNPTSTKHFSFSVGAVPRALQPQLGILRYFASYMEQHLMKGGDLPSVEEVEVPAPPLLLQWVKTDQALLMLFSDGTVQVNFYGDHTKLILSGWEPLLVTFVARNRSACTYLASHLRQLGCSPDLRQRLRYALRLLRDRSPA
Chain of Cytochrome P450 2D6 (P10635 whole entry): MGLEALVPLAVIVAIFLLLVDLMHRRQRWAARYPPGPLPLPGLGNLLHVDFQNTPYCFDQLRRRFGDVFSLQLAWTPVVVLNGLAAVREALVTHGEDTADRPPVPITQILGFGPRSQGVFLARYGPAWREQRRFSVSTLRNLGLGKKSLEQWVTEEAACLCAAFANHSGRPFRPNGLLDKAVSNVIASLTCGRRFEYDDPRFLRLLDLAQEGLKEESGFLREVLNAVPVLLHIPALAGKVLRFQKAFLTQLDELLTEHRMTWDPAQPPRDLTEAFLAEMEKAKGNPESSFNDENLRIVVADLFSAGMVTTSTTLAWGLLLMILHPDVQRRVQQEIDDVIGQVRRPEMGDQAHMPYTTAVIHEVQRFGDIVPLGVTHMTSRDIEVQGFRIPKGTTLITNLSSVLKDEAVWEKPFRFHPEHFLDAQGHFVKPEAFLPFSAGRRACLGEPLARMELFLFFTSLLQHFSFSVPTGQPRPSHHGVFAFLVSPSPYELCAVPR

As to `COc1ccc2c(c1)/C(=C\c1ccc3c(/C=C/c4ccc(N5CCN(C)CC5)nc4)n[nH]c3c1)C(=O)N2`, the GI50 is 2300 nM in the series with HCC1954; 2300 nM in the series with SK-BR-3; less than 10 nM with MDA-MB-468 [2]; less than 10 nM in the series with MDA-MB-231; 10 nM in the series with MCF7. Moreover, the pIC50 in [1] was less than 5.00; against Aurora kinase B, 6.68; against Cytochrome P450 2C9, 6.10; at Cytochrome P450 3A4 it was 5.00; on Aurora kinase A, 6.43; at Cytochrome P450 2D6, less than 5.00. Moreover, the pIC50 was 5.80 against Cytochrome P450 2C19, 9.21 in [8] and less than 5.00 in series [9]. Besides, the Papp in series [3] stood at 164 ×10⁻⁶ cm/s. The molecule further registered an area under the curve (AUC) in series [4] of 190 ng·h/mL. The inhibition in vivo at 50 mg/kg with MDA-MB-468 [5] was 120%. For the same molecule, the highest concentration (Cmax) in [6] was determined as 92 ng/mL. For the same molecule, in series [7], the fraction unbound at 4 h worked out at 0.01. Further, the Activity entry in the series with Mus musculus was “Non-toxic”.
